pIC50: −log10 of the molar value.
Key:
Serine protease 1 = Serine protease 1 (Homo sapiens, UniProt P07477); assay: In vitro inhibitory activity was evaluated against human trypsin
Plasminogen [1] = molecular target: T1, Plasminogen (Rattus norvegicus, UniProt Q01177); assay: In vitro inhibitory activity was evaluated against thrombolytic enzyme plasmin
Coagulation factor X = Coagulation factor X (Homo sapiens, UniProt P00742); assay: In vitro inhibitory activity was evaluated against Coagulation factor X
[2] = In vitro inhibitory activity was evaluated against FIIa serine protease
Plasminogen [3] = molecular target: T1, Plasminogen; assay: In vitro inhibitory activity was evaluated against thrombolytic enzyme plasmin; Inactive

Chain of Serine protease 1 (P07477 whole entry): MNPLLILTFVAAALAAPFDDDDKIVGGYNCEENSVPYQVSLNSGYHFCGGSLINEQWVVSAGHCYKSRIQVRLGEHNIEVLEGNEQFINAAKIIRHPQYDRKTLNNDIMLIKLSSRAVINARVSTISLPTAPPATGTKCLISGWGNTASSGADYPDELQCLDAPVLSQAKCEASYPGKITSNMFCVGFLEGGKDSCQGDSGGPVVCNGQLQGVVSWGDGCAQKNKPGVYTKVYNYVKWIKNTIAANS
Chain of Coagulation factor X (P00742 41-179 limits assumed): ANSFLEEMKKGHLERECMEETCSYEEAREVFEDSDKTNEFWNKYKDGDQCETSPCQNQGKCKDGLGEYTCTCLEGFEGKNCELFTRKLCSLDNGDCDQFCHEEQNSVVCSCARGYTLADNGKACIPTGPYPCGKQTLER
Chain of Coagulation factor X (P00742 235-488 limits assumed): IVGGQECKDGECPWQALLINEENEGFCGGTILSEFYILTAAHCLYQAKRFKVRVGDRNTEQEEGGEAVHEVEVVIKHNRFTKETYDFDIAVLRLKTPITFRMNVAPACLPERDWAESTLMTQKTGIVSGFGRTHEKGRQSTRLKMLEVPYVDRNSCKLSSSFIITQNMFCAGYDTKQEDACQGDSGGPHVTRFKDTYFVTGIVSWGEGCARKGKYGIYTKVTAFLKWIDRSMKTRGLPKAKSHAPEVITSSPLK
T1 sequence (Q01177 97-581 limits assumed): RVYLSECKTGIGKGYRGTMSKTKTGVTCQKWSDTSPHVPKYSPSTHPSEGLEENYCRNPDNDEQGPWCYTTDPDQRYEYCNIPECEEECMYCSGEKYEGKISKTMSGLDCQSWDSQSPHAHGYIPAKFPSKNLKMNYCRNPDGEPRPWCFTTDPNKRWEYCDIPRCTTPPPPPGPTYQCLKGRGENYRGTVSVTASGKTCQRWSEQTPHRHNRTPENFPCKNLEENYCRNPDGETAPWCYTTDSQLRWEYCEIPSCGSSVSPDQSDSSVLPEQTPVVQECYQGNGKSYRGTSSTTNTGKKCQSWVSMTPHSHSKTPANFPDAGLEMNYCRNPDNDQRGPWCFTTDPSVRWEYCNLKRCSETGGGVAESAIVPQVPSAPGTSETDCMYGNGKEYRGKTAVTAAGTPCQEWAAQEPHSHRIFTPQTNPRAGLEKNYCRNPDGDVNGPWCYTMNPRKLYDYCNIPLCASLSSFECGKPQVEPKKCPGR
T1 sequence (Q01177 582-812 limits assumed): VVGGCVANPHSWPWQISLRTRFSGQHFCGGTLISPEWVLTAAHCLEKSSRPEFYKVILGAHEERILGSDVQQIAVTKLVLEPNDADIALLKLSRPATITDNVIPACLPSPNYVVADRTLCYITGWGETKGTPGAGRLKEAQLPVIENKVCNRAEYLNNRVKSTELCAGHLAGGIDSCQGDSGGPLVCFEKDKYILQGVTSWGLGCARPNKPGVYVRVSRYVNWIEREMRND

CCCCCCCCCCOC(=O)c1ccccc1CS(=O)(=O)N[C@H]1CCCCN(CC(=O)N[C@H]2CCCN(C(=N)N)C2O)C1=O (stereo not given in full)
pIC50 (Serine protease 1): 6.84
pIC50 (Plasminogen [1]): < 5.60
pIC50 (Coagulation factor X): < 5.60
pIC50 [2]: 8.15

N=C(N)N1CCC[C@H](NC(=O)CN2CCCC[C@H](NS(=O)(=O)Cc3ccccc3C(=O)O)C2=O)C1O (stereo not given in full)
pIC50 (Serine protease 1): 6.61
pIC50 (Plasminogen [1]): < 5.60
pIC50 (Coagulation factor X): < 5.60
pIC50 [2]: 7.41

CCCOC(=O)c1ccccc1CS(=O)(=O)N[C@H]1CCCCN(CC(=O)N[C@H]2CCCN(C(=N)N)C2O)C1=O (stereo not given in full)
pIC50 (Serine protease 1): 7.10
pIC50 (Plasminogen [1]): < 5.60
pIC50 (Coagulation factor X): 6.35
pIC50 [2]: 9.02

N=C(N)N1CCC[C@H](NC(=O)CN2CCCC[C@H](NS(=O)(=O)Cc3ccccc3C(=O)OCC3CCCCC3)C2=O)C1O (stereo not given in full)
pIC50 (Serine protease 1): 6.87
pIC50 (Plasminogen [1]): 5.75
pIC50 (Coagulation factor X): 6.20
pIC50 [2]: 9.25

COC(=O)c1ccccc1CS(=O)(=O)N[C@H]1CCCCN(CC(=O)N[C@H]2CCCN(C(=N)N)C2O)C1=O (stereo not given in full)
pIC50 (Serine protease 1): 6.93
pIC50 (Plasminogen [1]): < 5.60
pIC50 (Coagulation factor X): 6.48
pIC50 [2]: 9.12

N=C(N)N1CCC[C@H](NC(=O)CN2CCCC[C@H](N3C(=O)c4ccccc4CS3(=O)=O)C2=O)C1O (stereo not given in full)
pIC50 (Serine protease 1): 5.60
pIC50 (Plasminogen [1]): < 5.60
pIC50 (Coagulation factor X): < 5.60
pIC50 [2]: 6.61

CC(C)OC(=O)c1ccccc1CS(=O)(=O)N[C@H]1CCCCN(CC(=O)N[C@H]2CCCN(C(=N)N)C2O)C1=O (stereo not given in full)
pIC50 (Serine protease 1): 7.38
pIC50 (Plasminogen [1]): < 5.60
pIC50 (Coagulation factor X): 6.43
pIC50 [2]: 9.03

N=C(N)N1CCC[C@H](NC(=O)CN2CCC[C@H](NS(=O)(=O)Cc3ccccc3)C2=O)C1O (stereo not given in full)
IC50 (Plasminogen [3]): Not Active
pIC50 (Coagulation factor X): < 5.60
pIC50 [2]: 8.21

N=C(N)N1CCC[C@H](NC(=O)CN2CCCC[C@H](NS(=O)(=O)Cc3ccccc3)C2=O)C1O (stereo not given in full)
pIC50 (Serine protease 1): 7.00
pIC50 (Plasminogen [1]): < 5.60
pIC50 (Coagulation factor X): 7.40
pIC50 [2]: 9.15

From ChEMBL document CHEMBL1130728, “Alkoxide-catalyzed ring-opening of a novel homosaccharin derivative: synthesis of potent, selective P3-lactam thrombin inhibitors containing P4-o-alkoxycarbonylbenzylsulfonamide residues” (Bioorg Med Chem Lett, 1998)
